Where a SMILES comes first, the peptide text is derived from it. [ ]: non-standard residue; d: D form. The star is where a group is joined. NHCH2CH2OH = OCCN*; For = O=C*
Tests used:
[1] = system: Streptococcus pyogenes SSI-9; test: Antibacterial activity assay of bead-derived peptides (three concentrations); assay type: cell-based; design: key: +++: inhibition by the 640-fold diluted peptide solution; ++: inhibition by the 160-fold diluted solution; +: inhibition by the 40-fold diluted solution; -: no inhibition; details: S. pyogenes, bead-derived peptide solution, three concentrations
Summary of the method: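 Library peptide stock applied undiluted, 4-fold and 16-fold diluted in DMSO to S. pyogenes SSI-9 (2 × 10^5 CFU) in cation-adjusted Mueller Hinton broth with 5% laked horse blood. After 18 h at 37 °C, growth judged by visible cell precipitation.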

[2] = system: P388 mouse leukemia cells; details: 92 h
Summary of the method: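 P388 cells at 1 × 10^4 cells/mL (final) were exposed to library peptides (stocks diluted 250-fold in RPMI1640/10% FBS) for 92 h at 37 °C, 5% CO2. Viable cells were counted by WST-1/1-methoxy PMS (4 h), absorbance 415 nm, and expressed as cell viability (%).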

[3] = H+/Na+ transport assay of bead-derived peptides (one-point); assay type: biochemical; design: key: relative activity; mean of two control wells = 1.00; details: bead-derived peptide solution, EYPC/EYPG LUVs;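 note: relative to parent gramicidin A activity set to 1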
Summary of the method: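 Values are normalized fluorescence, with Triton X-100 defining 100% and untreated LUVs 0%, and the two control wells averaging 1.00. Vesicles carried 1.0 mM pyranine and included egg yolk phosphatidylglycerol. Peptides were incubated with them 30 min at room temperature.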

CC(C)C[C@@H](NC(=O)[C@H](C)NC(=O)[C@H](NC(=O)[C@H](C)NC(=O)CNC(=O)[C@@H](NC=O)C(C)C)C(C)C)C(=O)N[C@H](C(=O)N[C@@H](C(=O)N[C@@H](Cc1c[nH]c2ccccc12)C(=O)N[C@H](CC(C)C)C(=O)N[C@@H](Cc1c[nH]c2ccccc12)C(=O)N[C@H](CC(C)C)C(=O)N[C@@H](Cc1c[nH]c2ccccc12)C(=O)N[C@@H](C(=O)N[C@@H](Cc1c[nH]c2ccccc12)C(=O)NCCO)C(C)C)C(C)C)C(C)C [compound 5872] (For-VGA[dV]A[dL]V[dV]W[dL]W[dL]W[dV]W-NHCH2CH2OH)
antibacterial activity [1]: + | cell viability/% [2]: 9.9% | H+/Na+ transport activity normalized against the value of 1 (1.00) [3]: 1.02

CC(C)C[C@@H](NC(=O)[C@H](C)NC(=O)CNC(=O)[C@@H](NC=O)C(C)C)C(=O)N[C@@H](C)C(=O)N[C@@H](C(=O)N[C@H](C(=O)N[C@@H](C(=O)N[C@@H](Cc1c[nH]c2ccccc12)C(=O)N[C@@H](C(=O)N[C@@H](Cc1c[nH]c2ccccc12)C(=O)N[C@H](CC(C)C)C(=O)N[C@@H](Cc1c[nH]c2ccccc12)C(=O)N[C@H](CC(C)C)C(=O)N[C@@H](Cc1c[nH]c2ccccc12)C(=O)NCCO)C(C)C)C(C)C)C(C)C)C(C)C [compound 3124] (For-VGA[dL]A[dV]V[dV]W[dV]W[dL]W[dL]W-NHCH2CH2OH)
antibacterial activity [1]: ++ | cell viability/% [2]: 0.0% | H+/Na+ transport activity normalized against the value of 1 (1.00) [3]: 1.26

CC(C)C[C@@H](NC(=O)[C@H](C)NC(=O)[C@H](NC(=O)[C@H](C)NC(=O)CNC(=O)[C@@H](NC=O)C(C)C)[C@H](C)O)C(=O)N[C@H](C(=O)N[C@@H](C(=O)N[C@@H](Cc1c[nH]c2ccccc12)C(=O)N[C@@H](C(=O)N[C@@H](Cc1c[nH]c2ccccc12)C(=O)N[C@H](CC(C)C)C(=O)N[C@@H](Cc1c[nH]c2ccccc12)C(=O)N[C@@H](C(=O)N[C@@H](Cc1c[nH]c2ccccc12)C(=O)NCCO)C(C)C)C(C)C)C(C)C)C(C)C [compound 8687] (For-VGA[dT]A[dL]V[dV]W[dV]W[dL]W[dV]W-NHCH2CH2OH)
antibacterial activity [1]: - | cell viability/% [2]: 66.9% | H+/Na+ transport activity normalized against the value of 1 (1.00) [3]: 1.15

CC(C)C[C@@H](NC(=O)[C@H](C)NC(=O)[C@H](NC(=O)[C@H](C)NC(=O)CNC(=O)[C@@H](NC=O)C(C)C)C(C)C)C(=O)N[C@H](C(=O)N[C@H](CC(C)C)C(=O)N[C@@H](Cc1c[nH]c2ccccc12)C(=O)N[C@H](CC(C)C)C(=O)N[C@@H](Cc1c[nH]c2ccccc12)C(=O)N[C@H](CC(C)C)C(=O)N[C@@H](Cc1c[nH]c2ccccc12)C(=O)N[C@H](CC(C)C)C(=O)N[C@@H](Cc1c[nH]c2ccccc12)C(=O)NCCO)C(C)C [compound 1343] (For-VGA[dV]A[dL]V[dL]W[dL]W[dL]W[dL]W-NHCH2CH2OH)
antibacterial activity [1]: - | cell viability/% [2]: 4.0% | H+/Na+ transport activity normalized against the value of 1 (1.00) [3]: 1.02

CNC(=O)C[C@@H](NC(=O)[C@H](Cc1c[nH]c2ccccc12)NC(=O)[C@H](NC(=O)[C@H](Cc1c[nH]c2ccccc12)NC(=O)[C@@H](CC(C)C)NC(=O)[C@H](Cc1c[nH]c2ccccc12)NC(=O)[C@H](NC(=O)[C@@H](NC(=O)[C@H](NC(=O)[C@H](C)NC(=O)[C@@H](CC(C)C)NC(=O)[C@H](C)NC(=O)CNC(=O)[C@@H](NC=O)C(C)C)C(C)C)C(C)C)C(C)C)C(C)C)C(=O)N[C@@H](Cc1c[nH]c2ccccc12)C(=O)NCCO [compound 7948] (For-VGA[dL]A[dV]V[dV]W[dL]W[dV]W[dD](NHMe)W-NHCH2CH2OH)
antibacterial activity [1]: - | cell viability/% [2]: 100.0% | H+/Na+ transport activity normalized against the value of 1 (1.00) [3]: 1.04

CC(C)C[C@@H](NC(=O)[C@H](Cc1c[nH]c2ccccc12)NC(=O)[C@H](NC(=O)[C@@H](NC(=O)[C@H](NC(=O)[C@H](C)NC(=O)[C@H](NC(=O)[C@H](C)NC(=O)CNC(=O)[C@@H](NC=O)C(C)C)C(C)C)C(C)C)C(C)C)[C@H](C)O)C(=O)N[C@@H](Cc1c[nH]c2ccccc12)C(=O)N[C@@H](C(=O)N[C@@H](Cc1c[nH]c2ccccc12)C(=O)N[C@@H](C(=O)N[C@@H](Cc1c[nH]c2ccccc12)C(=O)NCCO)C(C)C)C(C)C [compound 9910] (For-VGA[dV]A[dV]V[dT]W[dL]W[dV]W[dV]W-NHCH2CH2OH)
antibacterial activity [1]: - | cell viability/% [2]: 100.0% | H+/Na+ transport activity normalized against the value of 1 (1.00) [3]: 1.07

CC(C)C[C@@H](NC(=O)[C@H](Cc1c[nH]c2ccccc12)NC(=O)[C@H](NC(=O)[C@H](Cc1c[nH]c2ccccc12)NC(=O)[C@H](NC(=O)[C@H](Cc1c[nH]c2ccccc12)NC(=O)[C@H](NC(=O)[C@@H](NC(=O)[C@H](NC(=O)[C@H](C)NC(=O)[C@H](NC(=O)[C@H](C)NC(=O)CNC(=O)[C@@H](NC=O)C(C)C)C(C)C)[C@H](C)O)C(C)C)C(C)C)C(C)C)C(C)C)C(=O)N[C@@H](Cc1c[nH]c2ccccc12)C(=O)NCCO [compound 379] (For-VGA[dV]A[dT]V[dV]W[dV]W[dV]W[dL]W-NHCH2CH2OH)
antibacterial activity [1]: - | cell viability/% [2]: 100.0% | H+/Na+ transport activity normalized against the value of 1 (1.00) [3]: 1.19

CC(C)C[C@@H](NC(=O)[C@H](Cc1c[nH]c2ccccc12)NC(=O)[C@H](NC(=O)[C@H](Cc1c[nH]c2ccccc12)NC(=O)[C@H](NC(=O)[C@H](Cc1c[nH]c2ccccc12)NC(=O)[C@H](NC(=O)[C@@H](NC(=O)[C@H](NC(=O)[C@H](C)NC(=O)[C@H](NC(=O)[C@H](C)NC(=O)CNC(=O)[C@@H](NC=O)C(C)C)[C@H](C)O)C(C)C)C(C)C)C(C)C)C(C)C)C(C)C)C(=O)N[C@@H](Cc1c[nH]c2ccccc12)C(=O)NCCO [compound 9354] (For-VGA[dT]A[dV]V[dV]W[dV]W[dV]W[dL]W-NHCH2CH2OH)
antibacterial activity [1]: - | cell viability/% [2]: 100.0% | H+/Na+ transport activity normalized against the value of 1 (1.00) [3]: 1.16

CC(C)C[C@@H](NC(=O)[C@H](C)NC(=O)CNC(=O)[C@@H](NC=O)C(C)C)C(=O)N[C@@H](C)C(=O)N[C@H](CC(C)C)C(=O)N[C@H](C(=O)N[C@H](CC(C)C)C(=O)N[C@@H](Cc1c[nH]c2ccccc12)C(=O)N[C@@H](C(=O)N[C@@H](Cc1c[nH]c2ccccc12)C(=O)N[C@@H](C(=O)N[C@@H](Cc1c[nH]c2ccccc12)C(=O)N[C@H](CC(C)C)C(=O)N[C@@H](Cc1c[nH]c2ccccc12)C(=O)NCCO)C(C)C)[C@H](C)O)C(C)C [compound 11660] (For-VGA[dL]A[dL]V[dL]W[dT]W[dV]W[dL]W-NHCH2CH2OH)
antibacterial activity [1]: - | cell viability/% [2]: 100.0% | H+/Na+ transport activity normalized against the value of 1 (1.00) [3]: 1.09

CC(C)C[C@@H](NC(=O)[C@H](C)NC(=O)CNC(=O)[C@@H](NC=O)C(C)C)C(=O)N[C@@H](C)C(=O)N[C@@H](C(=O)N[C@H](C(=O)N[C@@H](C(=O)N[C@@H](Cc1c[nH]c2ccccc12)C(=O)N[C@@H](C(=O)N[C@@H](Cc1c[nH]c2ccccc12)C(=O)N[C@@H](C(=O)N[C@@H](Cc1c[nH]c2ccccc12)C(=O)N[C@@H](C(=O)N[C@@H](Cc1c[nH]c2ccccc12)C(=O)NCCO)C(C)C)C(C)C)C(C)C)C(C)C)C(C)C)C(C)C [compound 7516] (For-VGA[dL]A[dV]V[dV]W[dV]W[dV]W[dV]W-NHCH2CH2OH)
antibacterial activity [1]: + | cell viability/% [2]: 100.0% | H+/Na+ transport activity normalized against the value of 1 (1.00) [3]: 1.03
